{"source": "patent US5185366A", "about": "“Method for treatment and prevention of diseases caused by enveloped viruses, including herpes simplex virus types 1 and 2 diseases, using 3,4-dihydroxy-2H-benzopyran-2H-one” (Ohio State University Research Foundation, priority 1990, dated 1993)", "key": {"[1]": {"system": "Buffalo green monkey kidney (BGM 70) cells", "experiment": "[3H]-thymidine uptake cytotoxicity", "type": "cell-based", "settings": "for inhibition at 0.4 µM / inhibition at 1.6 µM / inhibition at 2.5 µM / inhibition at 10 µM: Chlorocebus sabaeus, read-out: % Inhibition of [3H]-Thymidine Incorporated; for inhibition at 0.4 µM: 0.4 μmol/L; for inhibition at 1.6 µM: 1.6 μmol/L; for inhibition at 2.5 µM: 2.5 μmol/L; for inhibition at 10 µM: 10.0 μmol/L; for toxicity ([3H]-thymidine uptake and/or cell growth): at 10 μM"}, "[2]": {"experiment": "Inhibition of cell growth (microscopic cell count)", "type": "cell-based, Buffalo green monkey", "settings": "monkey, bgm-70 cells, read-out: % Reduction of cell growth", "experimental": "a MASHII cell harvester and placed in a scintillation counter to determin\nincorporation of labelled compound and level of toxicity. BGM 70 cells ar\nseeded at a concentration of […] per well in a 24well tissue cultur\nplate. Cells are planted in 2 mL of growth medium with or without the tes\ncompound and are incubated at 37° C. for 38 hours. At 24 hours\nmedium is removed from onehalf of the plates and the cells are fixed and\nstained with crystal violet. The remaining cultures are fixed and stained\n^b BGM 70 cells are counted microscopically and comparisons are made.\nExperiments are performed blindly by assigning each compound concentratio\na letter code. The code is broken after the cells are counted.\nThe effect of the compounds on the inhibition of cell growth is determined using BGM-70 cells grown in vitro. For this assay, BGM 70 cells are seeded at a concentration of approximately 70 cells per well in 24-well tissue culture plates. Cells are planted in 2 ml of growth medium with or without the test compound and are incubated at 37° C. for 48 hours. At 24 hours, cells from one half of the plates are fixed and stained with crystal violet. The remaining cultures are fixed and stained at 48 hours. Cells are counted microscopically and comparisons are made between non-treated (control) and treated cells."}, "HSV-2": {"system": "HSV-2", "experiment": "Intracellular activity, inhibition of plaque forming units, HSV-2", "type": "cell-based, Herpes simplex virus type 2", "settings": "for intracellular antiviral activity: HSV-2, 10 μM; for Plaque Forming Units Mean ± SD: intracellular"}, "HSV-1": {"system": "HSV-1", "experiment": "Intracellular activity, inhibition of plaque forming units, HSV-1", "type": "cell-based, Herpes simplex virus type 1", "settings": "for intracellular antiviral activity: HSV-1, 10 μM; for Plaque Forming Units Mean ± SD: intracellular"}, "Poliovirus-2 [3]": {"system": "Poliovirus-2", "experiment": "organism not typed", "type": "cell-based"}, "Poliovirus-2 [4]": {"system": "Poliovirus-2", "experiment": "organism not typed", "type": "cell-based", "remark": "listed apart in the source"}, "VSV": {"system": "VSV", "experiment": "microbe, parasite or virus in culture", "type": "cell-based, Vesicular stomatitis virus", "settings": "VSV, n=2"}, "[5]": {"settings": "listed as 3,4-dihydroxy-2H-1-benzopyran-2-one"}}, "note": "Read-outs that look alike come from different tables or passages of the source."}
{"smiles": "O=c1oc2ccccc2c(O)c1O", "note": "[Compound 5, 3,4-dihydroxy-2H-1-benzopyran-2-one]", "values": [{"measurement": "inhibition at 0.4 µM", "setting": "[1]; 24 h", "value": 0, "unit": "%"}, {"measurement": "inhibition at 1.6 µM", "setting": "[1]; 24 h", "value": 0, "unit": "%"}, {"measurement": "inhibition at 2.5 µM", "setting": "[1]; 24 h", "value": 0, "unit": "%"}, {"measurement": "inhibition at 10 µM", "setting": "[1]; 24 h", "value": "28.4 ± 7.6", "unit": "%"}, {"measurement": "inhibition at 0.4 µM", "setting": "[1]; 48 h", "value": 0, "unit": "%"}, {"measurement": "inhibition at 1.6 µM", "setting": "[1]; 48 h", "value": 0, "unit": "%"}, {"measurement": "inhibition at 2.5 µM", "setting": "[1]; 48 h", "value": 0, "unit": "%"}, {"measurement": "inhibition at 10 µM", "setting": "[1]; 48 h", "value": "26.3 ± 6.3", "unit": "%"}, {"measurement": "inhibition at 0.4 µM", "setting": "[1]; 72 h", "value": 0, "unit": "%"}, {"measurement": "inhibition at 1.6 µM", "setting": "[1]; 72 h", "value": 0, "unit": "%"}, {"measurement": "inhibition at 2.5 µM", "setting": "[1]; 72 h", "value": 0, "unit": "%"}, {"measurement": "inhibition at 10 µM", "setting": "[1]; 72 h", "value": 0, "unit": "%"}, {"measurement": "toxicity ([3H]-thymidine uptake and/or cell growth)", "setting": "[1]", "value": "no toxicity"}, {"measurement": "toxicity ([3H]-thymidine uptake and/or cell growth)", "setting": "[1]; [5]", "value": "non-toxic"}, {"measurement": "inhibition at 24 h, 10 µM", "setting": "[2]; 24 h, 10.0 μmol/L", "value": 0, "unit": "%"}, {"measurement": "inhibition at 24 h, 50 µM", "setting": "[2]; 24 h, 50.0 μmol/L", "value": "5.9 ± 0.5", "unit": "%"}, {"measurement": "inhibition at 24 h, 100 µM", "setting": "[2]; 24 h, 100.0 μmol/L", "value": "47.8 ± 9", "unit": "%"}, {"measurement": "inhibition at 48 h, 10 µM", "setting": "[2]; 48 h, 10.0 μmol/L", "value": 0.4, "unit": "%"}, {"measurement": "inhibition at 48 h, 50 µM", "setting": "[2]; 48 h, 50.0 μmol/L", "value": "8.7 ± 2.8", "unit": "%"}, {"measurement": "inhibition at 48 h, 100 µM", "setting": "[2]; 48 h, 100.0 μmol/L", "value": "54.1 ± 3.2", "unit": "%"}, {"measurement": "intracellular antiviral activity", "setting": "HSV-2", "value": "shows both intra- and extra- cellular antiviral activity"}, {"measurement": "intracellular antiviral activity", "setting": "HSV-2; [5]", "value": "exhibits both intracellular and extracellular activity"}, {"measurement": "inhibition at 10 µM", "setting": "HSV-2; Human alphaherpesvirus 2, 10 μM, one experiment, n=3 wells, P<0.07, read-out: inhibition (PFU), virus-infected cells", "value": "26 ± 4", "unit": "%"}, {"measurement": "inhibition at 10 µM", "setting": "HSV-2; Human alphaherpesvirus 2, HSV-2, 10 μM (Table IV), read-out: % Inhibition of Plaque Forming Units, Intracellularly", "value": "36 ± 4.7", "unit": "%"}, {"measurement": "inhibition at 10 µM", "setting": "HSV-2; Human alphaherpesvirus 2, HSV-2, 10 μM, P<0.01, read-out: inhibition (PFU), intracellularly", "value": "25 to 39", "unit": "%"}, {"measurement": "inhibition at 10 µM", "setting": "HSV-2; Human alphaherpesvirus 2, HSV-2, 10.0 μmol/L, read-out: % Inhibition of PFU, IA (intracellular activity)", "value": 36, "unit": "%"}, {"measurement": "inhibition at 10 µM", "setting": "HSV-2; Human alphaherpesvirus 2, intracellular, HSV-2: 1 × Cmpd (10 μM), relative viral conc 10, read-out: % Inhibition", "value": 33, "unit": "%"}, {"measurement": "inhibition at 10 µM", "setting": "HSV-2; Human alphaherpesvirus 2, intracellular, HSV-2: 1 × Cmpd (10 μM), relative viral conc 100, read-out: % Inhibition", "value": 39, "unit": "%"}, {"measurement": "anti-HSV-2 properties", "setting": "HSV-2; at noncytotoxic concentrations", "value": "exhibited anti-HSV-2 properties at noncytotoxic concentrations"}, {"measurement": "Plaque Forming Units Mean ± SD", "setting": "HSV-2; HSV-2: 1 × Cmpd (10 μM), relative viral conc 10", "value": "14.3 ± 1.1"}, {"measurement": "Plaque Forming Units Mean ± SD", "setting": "HSV-2; HSV-2: 1 × Cmpd (10 μM), relative viral conc 100", "value": "153.6 ± 7.4"}, {"measurement": "intracellular antiviral activity", "setting": "HSV-1", "value": "shows both intra- and extra- cellular antiviral activity"}, {"measurement": "intracellular antiviral activity", "setting": "HSV-1; [5]", "value": "exhibits both intracellular and extracellular activity"}, {"measurement": "inhibition at 10 µM", "setting": "HSV-1; Human alphaherpesvirus 1, HSV-1, 10 μM, P<0.01, read-out: inhibition (PFU), intracellularly", "value": "25 to 39", "unit": "%"}, {"measurement": "inhibition at 10 µM", "setting": "HSV-1; Human alphaherpesvirus 1, HSV-1, 10 μM, read-out: % Inhibition of Plaque Forming Units, Intracellularly", "value": "38.4 ± 5.7", "unit": "%"}, {"measurement": "inhibition at 10 µM", "setting": "HSV-1; Human alphaherpesvirus 1, intracellular, HSV-1: 1 × Cmpd (10 μM), relative viral conc 10, read-out: % Inhibition", "value": 25, "unit": "%"}, {"measurement": "inhibition at 10 µM", "setting": "HSV-1; Human alphaherpesvirus 1, intracellular, HSV-1: 1 × Cmpd (10 μM), relative viral conc 100, read-out: % Inhibition", "value": 38, "unit": "%"}, {"measurement": "Plaque Forming Units Mean ± SD", "setting": "HSV-1; HSV-1: 1 × Cmpd (10 μM), relative viral conc 10", "value": "11.0 ± 1.0"}, {"measurement": "Plaque Forming Units Mean ± SD", "setting": "HSV-1; HSV-1: 1 × Cmpd (10 μM), relative viral conc 100", "value": "106.6 ± 9.3"}, {"measurement": "intracellular antiviral activity", "setting": "Poliovirus-2 [3]; poliovirus-2, n=2", "value": "no antiviral activity"}, {"measurement": "inhibition at 10 µM", "setting": "Poliovirus-2 [3]; read-out: % Inhibition of Plaque Forming Units, Intracellularly", "value": 2.1, "unit": "%"}, {"measurement": "extracellular antiviral activity", "setting": "Poliovirus-2 [4]; poliovirus-2, n=2", "value": "no antiviral activity"}, {"measurement": "inhibition at 10 µM", "setting": "Poliovirus-2 [4]; read-out: % Inhibition of Plaque Forming Units, Extracellularly", "value": 2.7, "unit": "%"}, {"measurement": "intracellular antiviral activity", "setting": "VSV", "value": "no antiviral activity"}]}
